The species entered for one assay is Rattus norvegicus. Nature of the assay: Inhibition of immobilized rat intestinal alpha-glucosidase using 4-nitrophenyl-alpha-D-glucopyranoside as substrate assessed as enzyme activity after 30 mins by spectrophotometry relative to control. More on the design: concentration or dose not given beside the values.
Assay [1] is described as follows: Inhibition of pig pancreas soluble alpha-amylase using 4-nitrophenyl-alpha-D-maltopentaoside as substrate after 30 mins by spectrophotometry. More on the design: species or system Sus scrofa.
Assay [2] can be described thus: […] inhibition of pig pancreas soluble alpha-amylase using 4-nitrophenyl-alpha-D-maltopentaoside as substrate assessed as enzyme-inhibitor dissociation constant after 30 mins by double reciprocal plot method. More on the design: species or system Sus scrofa.
The species named for the next assay is Sus scrofa. Put plainly: Mixed-type inhibition of pig pancreas soluble alpha-amylase using 4-nitrophenyl-alpha-D-maltopentaoside as substrate assessed as formation of inactive enzyme-inhibitor complex after 30 mins by spectrophotometry.
Assay [3] in a line: […] inhibition of pig pancreas soluble alpha-amylase using 4-nitrophenyl-alpha-D-maltopentaoside as substrate assessed as enzyme-substrate-inhibitor dissociation constant after 30 mins by double reciprocal plot method. More on the design: species or system Sus scrofa.

Active and inactive are the calls of the source. The rule behind the calls is not given here.

For the compound `C[C@H]1O[C@H](O[C@H]2[C@H](O)[C@@H](O)[C@@H](O[C@H]3[C@H](O)[C@@H](O)C(O)O[C@@H]3CO)O[C@@H]2CO)[C@H](O)[C@@H](O)[C@@H]1N[C@H]1C=C(CO)[C@@H](O)[C@H](O)[C@H]1O` (some centres not stated), the Activity in the assay listed under Rattus norvegicus was found to be 34.4%.

As a reminder, the IC50 is the concentration that gives 50% inhibition. Take `COc1cc(C[C@@H](CO)[C@H](CO)Cc2ccc(O)c(OC)c2)ccc1O` [(+)-SECOISOLARICIRESINOL]: the Activity in the assay filed under Rattus norvegicus was found to be 72.4%. Also, the IC50 in assay [1] is 9.5 µM.

Consider `O=C1OC[C@@H](Cc2cccc(O)c2)[C@@H]1Cc1cccc(O)c1` [(+)-ENTEROLACTONE], for which the Activity in the assay filed under Rattus norvegicus was 73.9%. Further, in assay [1], half-maximal inhibition (IC50) was put at 10.9 µM.

As to `COc1cc(C[C@H](CO[C@@H]2O[C@H](CO)[C@@H](O)[C@H](O)[C@H]2O)[C@@H](CO[C@@H]2O[C@H](CO)[C@@H](O)[C@H](O)[C@H]2O)Cc2ccc(O)c(OC)c2)ccc1O` [(+)-SECOISOLARICIRESINOLDIGLUCOSIDE], in the assay filed under Rattus norvegicus, the Activity turned out to be 74.3%. Further, in assay [1], the 50% inhibitory concentration (IC50) is 15.7 µM.

Usually Ki stands for a measure of affinity in units of concentration, obtained from inhibition or displacement. Take `OC[C@@H](Cc1cccc(O)c1)[C@@H](CO)Cc1cccc(O)c1` [(+)-ENTERODIOL]: the Ki was 94.1 µM in assay [2] and 40.3 µM in assay [3]. In addition, the Activity in the assay filed under Rattus norvegicus is 69.9%. In addition, in assay [1], the IC50 came out at 8.6 µM. In addition, in the assay listed under Sus scrofa, the inhibition entry is “Active”.
